Bridge positions count the residues as written; N and C are the ends. Square brackets hold non-standard residues; d marks the D form. Peptide text beside a SMILES is read from it. * marks the point of attachment. Bn = c1ccc(C*)cc1
Target: hMC4-R (Homo sapiens (Human), UniProt P32245)
Assay: Competitive inhibition binding assay using [I125]-NDP-α-MSH, hMC4-R membranes
Details: averaged; [I125]-NDP-α-MSH (values not marked *); read-out: MC4-R Ki
Method: A competitive inhibition binding assay is performed using membrane homogenates prepared from HEK-293 cells that express recombinant hMC4-R, hMC3-R, or hMC5-R, and from B-16 mouse melanoma cells (containing endogenous MC1-R). In some instances, HEK-293 cells that express recombinant hMC1-R were employed. In the examples that follow, all MC3-R, MC4-R and MC5-R values are for human recombinant receptors. […] Membrane homogenates were incubated with 0.2 nM (for hMC4-R) 0.4 nM (for MC3-R and MC5-R) or 0.1 nM (for mouse B16 MC1-R or hMC1-R) [I^125]-NDP-α-MSH (Perkin Elmer) and increasing concentrations of test peptides of the present invention in buffer containing 25 mM HEPES buffer (pH 7.5) with 100 mM NaCl, 2 mM CaCl2, 2 mM MgCl2, 0.3 mM 1,10-phenanthroline, and 0.2% bovine serum albumin. After incubation for 60 minutes at 37° C., the assay mixture was filtered and the membranes washed three times with ice-cold buffer. Filters were dried and counted in a gamma counter for bound radioactivity. […] Maximal specific binding (100%) was defined as the difference in radioactivity (cpm) bound to cell membranes in the absence and presence of 1 μM NDP-α-MSH. […] Each assay was conducted in triplicate and the actual mean values are described, with results less than 0% reported as 0%. Ki values for test peptides of the present invention were determined using Graph-Pad Prism® curve-fitting software.

Chain of hMC4-R (P32245 whole entry): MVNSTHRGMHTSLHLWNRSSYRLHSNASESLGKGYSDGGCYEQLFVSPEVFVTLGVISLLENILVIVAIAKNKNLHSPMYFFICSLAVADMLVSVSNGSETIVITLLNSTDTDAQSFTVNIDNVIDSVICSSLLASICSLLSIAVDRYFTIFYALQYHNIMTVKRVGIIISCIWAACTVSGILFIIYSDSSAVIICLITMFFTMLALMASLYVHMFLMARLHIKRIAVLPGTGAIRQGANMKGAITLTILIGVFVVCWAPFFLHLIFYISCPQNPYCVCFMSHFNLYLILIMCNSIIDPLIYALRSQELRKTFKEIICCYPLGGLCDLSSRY

Compound | Ki [µM]
CC(=O)N[C@@H](CCCNC(=N)N)C(=O)N[C@H]1CC(=O)NCCCC[C@@H](C(N)=O)NC(=O)[C@H](Cc2c[nH]c3ccccc23)NC(=O)[C@H](CCCNC(=N)N)NC(=O)[C@@H](Cc2ccccc2)NC(=O)[C@H](CO)NC1=O [Peptide No. 3, Ac-Arg-cyclo(Asp-Ser- D-Phe-Arg-Trp-Lys)- NH2] | 0.172
CC(=O)N[C@@H](CCCNC(=N)N)C(=O)N[C@H]1CC(=O)NCCCC[C@@H](C(N)=O)NC(=O)[C@H](Cc2c[nH]c3ccccc23)NC(=O)[C@H](CCCNC(=N)N)NC(=O)[C@@H](Cc2ccccc2)NC(=O)[C@H]([C@@H](C)OCc2ccccc2)NC1=O [compound 14, Ac-Arg-cyclo(Asp- Thr(Bzl)-D-Phe-Arg- Trp-Lys)-NH2] (Ac-RDT(Bn)[dF]RWK-NH2; lactam 2-7) | 0.001
CC(=O)N[C@@H](CCCNC(=N)N)C(=O)N[C@H]1CC(=O)NCCCC[C@@H](C(N)=O)NC(=O)[C@H](Cc2c[nH]c3ccccc23)NC(=O)[C@H](CCCNC(=N)N)NC(=O)[C@@H](Cc2cccc3ccccc23)NC(=O)[C@H](Cc2c[nH]cn2)NC1=O [compound 19, Ac-Arg-cyclo(Asp-His- D-Nal 1-Arg-Trp-Lys)- NH2] | 0.003
CC(=O)N[C@@H](CCCNC(=N)N)C(=O)N[C@H]1CC(=O)NCCCC[C@@H](C(N)=O)NC(=O)[C@H](Cc2c[nH]c3ccccc23)NC(=O)[C@H](CCCNC(=N)N)NC(=O)[C@@H](Cc2ccccc2)NC(=O)[C@H](Cc2cccc(C(N)=O)c2)NC1=O [compound 49, Ac-Arg-cyclo(Asp-Phe- (3-(C(═O)—NH2))-D-Phe- Arg-Trp-Lys)-NH2] | 0.015
CC(=O)N[C@@H](CCCNC(=N)N)C(=O)N[C@H]1CC(=O)NCCCC[C@@H](C(N)=O)NC(=O)[C@H](Cc2c[nH]c3ccccc23)NC(=O)[C@H](CCCNC(=N)N)NC(=O)[C@@H](Cc2ccccc2)NC(=O)[C@H](Cc2ccc(C(N)=O)cc2)NC1=O [compound 50, Ac-Arg-cyclo(Asp- Phe(4-(C(═O)—NH2))-D- Phe-Arg-Trp-Lys)-NH2] | 0.03
CC(=O)N[C@@H](CCCNC(=N)N)C(=O)N[C@H]1CC(=O)NCCCC[C@@H](C(=O)O)NC(=O)[C@H](Cc2c[nH]c3ccccc23)NC(=O)[C@H](CCCNC(=N)N)NC(=O)[C@@H](Cc2ccccc2)NC(=O)[C@@H]2C[C@@H](OCc3ccccc3)CN2C1=O [compound 54, Ac-Arg-cyclo(Asp- Hyp(Bzl)-D-Phe-Arg- Trp-Lys)-OH] | 0.003
CC(=O)N[C@@H](CCCNC(=N)N)C(=O)N[C@H]1CC(=O)NCCCC[C@@H](C(=O)O)NC(=O)[C@H](Cc2c[nH]c3ccccc23)NC(=O)[C@H](CCCNC(=N)N)NC(=O)[C@@H](Cc2ccccc2)NC(=O)[C@@H]2C[C@@H](Cc3ccccc3)CN2C1=O [compound 55, Ac-Arg-cyclo(Asp- Pro(Bn)-D-Phe-Arg- Trp-Lys)-OH] | 0.012
CC(=O)N[C@@H](CCCNC(=N)N)C(=O)N[C@H]1CC(=O)NCCCC[C@@H](C(N)=O)NC(=O)[C@H](Cc2c[nH]c3ccccc23)NC(=O)[C@H](CCCNC(=N)N)NC(=O)[C@@H](Cc2ccccc2)NC(=O)[C@H](CCC(N)=O)NC1=O [compound 57, Ac-Arg-cyclo(Asp-Gln- D-Phe-Arg-Trp-Lys)-OH] | 0.115
CC(=O)N[C@@H](CCCNC(=N)N)C(=O)N[C@H]1CC(=O)NCCCC[C@@H](C(=O)O)NC(=O)[C@H](Cc2c[nH]c3ccccc23)NC(=O)[C@H](CCCNC(=N)N)NC(=O)[C@@H](Cc2ccccc2)NC(=O)[C@H](CCCN)NC1=O [compound 58, Ac-Arg-cyclo(Asp-Orn- D-Phe-Arg-Trp-Lys)-OH] | 0.023
CC(=O)N[C@@H](CCCNC(=N)N)C(=O)N[C@H]1CC(=O)NCCCC[C@@H](C(N)=O)NC(=O)[C@H](Cc2c[nH]c3ccccc23)NC(=O)[C@H](CCCNC(=N)N)NC(=O)[C@@H](Cc2ccccc2)NC(=O)CN(C)C1=O [compound 63, Ac-Arg-cyclo(Asp-Sar- D-Phe-Arg-Trp-Lys)- NH2] | 0.015
